Source: patent US7153653B2, “Differentially methylated sequences in pancreatic cancer” (The Johns Hopkins University School of Medicine, priority 2001, dated 2006)

How the values were obtained:
[1] = system: ppENK expression in pancreatic cancer cell lines PL3, CAPAN2, MiaPaca2 and Panc1; assay: RT-PCR analysis of ppENK expression after 5Aza-dC treatment; format: cell-based, human; details: 4 methylated cell lines (PL3, CAPAN2, MiaPaca2, Panc1), 5Aza-dC at a final concentration of 1 μM for 5 days, coamplified with GAPDH
Description: (§1) Five pancreatic cancer cell lines (PL3, PL8, CAPAN2, Panc1, and MiaPaca2) and four normal pancreata were used for RT-PCR analysis. The cell lines were treated with demethylating agent 5Aza-dC (Sigma Chemical Co.) at a final concentration of 1 μM for 5 days. Total RNA was prepared using TRIzol (Life Technologies, Inc.), reverse-transcribed and amplified. As a control for cDNA integrity, glyceraldehyde-3-phosphate dehydrogenase gene (GAPDH) was also amplified. Primer sequences for RT-PCR are listed in Table 3 and are available at http://pathology2.jhu.edu/pancreas/prim0425.htm, which website is incorporated herein by reference.
(§2) Partial methylation (˜50%) of the 5′ CpG island of Cyclin G in PL8 (FIG. 4C) was associated with decreased expression of Cyclin G by RT-PCR. The 5′ CpG island of Cyclin G was not methylated in a panel of normal pancreata. Cyclin G was expressed in 4 normal pancreata by RT-PCFR. […] Thus, hypermethylation of the 5′ CpG islands of Cyclin G and ppENK is coincides with decreased expression in pancreatic cancers.

[2] = system: Cyclin G expression in pancreatic cancer cell line PL8; assay: RT-PCR analysis of Cyclin G expression after 5Aza-dC treatment; format: cell-based, human; details: methylated cell line PL8, 5Aza-dC at a final concentration of 1 μM for 5 days, coamplified with GAPDH
Description: as §1, §2

[3] = listed as 5-aza-2′-deoxycytidine

For `Nc1ncn([C@H]2C[C@H](O)[C@@H](CO)O2)c(=O)n1` [5Aza-dC, 5-aza-2′-deoxycytidine], the “ppENK expression by RT-PCR” value [1] was “restored ppENK expression in all 4 cell lines”, the “ppENK expression by RT-PCR” value [1, 3] was “reversible” and the “ppENK expression by RT-PCR” value ([1]; listed as 5 Aza-dC) was “restored the ppENK expression”. The “Cyclin G expression by RT-PCR” value [2] was “restored the expression of Cyclin G”, the “Cyclin G expression by RT-PCR” value [2, 3] was “reversible” and the “Cyclin G expression by RT-PCR” value ([2]; listed as 5 Aza-dC) was “increased Cyclin G expression”.
